Key:
A549 cells [1] = assay: Proton pump blocking test (omeprazole) for lysosomal exocytosis; assay type: cell-based, human; settings: for intracellular localisation: LysoTracker staining
Experimental: To assess whether the exocytosis of olivacine and ellipticine from cancer cells is lysosomal, a proton pump blocking test was performed. Omeprazole was added into A549 cells at a concentration of 200 µM for 1 h. The cell culture was then washed twice with PBS, and the cells were treated with tested compounds. The cell culture was assessed using an Evos FL microscope. The lysosomes were stained using LysoTracker™ Deep Red kit (L12492; Invitrogen). Cultured cells were evaluated using an Evos FL microscope, taking photos every 15 min. After treatment with olivacine or olivacine and omeprazole, analysis of mean cell fluorescence was performed from five independent replicates. In addition, 14 pictures were taken from each replicate, and 100 cells were analyzed by photomicrography using the ImageJ platform.

LoVo cells [2] = assay: SRB assay (total protein content), LoVo; assay type: cell-based; settings: Homo sapiens, 48 h incubation
Experimental: (§1) The anticancer activity of tested compounds was assessed on five human cell lines selected from the panel of tumor cell lines recommended by the National Cancer Institute: A495 (lung carcinoma), CCRF/CEM (acute lymphoblastic leukemia), LoVo and LoVo/DX (two types of colorectal: non-resistant and resistant to doxorubicin), and MCF-7 (breast adenocarcinoma). In addition, the NHDF cell line (normal human dermal fibroblasts) was used to estimate cytotoxicity to noncancer cells. The A549, CCRF/CEM, LoVo, LoVo/DX, and MCF-7 cells were obtained from ECACC, and NHDF cells from LONZA, Belgium. The A549 and MCF-7 cells were grown in EMEM medium, CCRF/CEM cells in RPMI-1640, LoVo and LoVo/DX cells in DMEM/F-12, and NHDF cells in DMEM without phenol red. The cells were seeded in […] in the biological assay, as recommended by the National Cancer Institute. All culture media were supplemented with L-glutamine, penicillin, streptomycin, and 10% fetal bovine serum (FBS). Cells were incubated at 37 °C and 5% CO2. One of the most popular in vitro tests to evaluate the activity of compounds with potential antitumor activity is the SRB assay. The sulforhodamine B dye is used, which binds to the protein at the appropriate pH. The assay allows for assessing cell mass and, indirectly, their proliferation. The advantage of the assay is that it measures cellular protein content and not the activity of any enzymes. The SRB assay was carried out according to the National Cancer Institute procedure. Cells were incubated in a culture medium for 24 h in 96-well plates. After 24 h, the control plate for each cell line was fixed with TCA to evaluate cell culture before treatment with tested compounds. […] Cell cultures were then fixed by adding 50% TCA at 4 °C for 1 h. After removing the supernatant, the plates were washed with water and dried. […] Growth inhibition was calculated following the NCI guidelines and expressed as the GI50 ratio, i.e., the concentration of the compound in which the amount of protein was reduced by half compared with the control.

MCF-7 cells [3] = assay: MTT assay (mitochondrial activity), MCF-7; assay type: cell-based; settings: Homo sapiens, MCF7
Experimental: (§2) The anticancer activity of tested compounds was assessed on five human cell lines selected from the panel of tumor cell lines recommended by the National Cancer Institute: A495 (lung carcinoma), CCRF/CEM (acute lymphoblastic leukemia), LoVo and LoVo/DX (two types of colorectal: non-resistant and resistant to doxorubicin), and MCF-7 (breast adenocarcinoma). In addition, the NHDF cell line (normal human dermal fibroblasts) was used to estimate cytotoxicity to noncancer cells. The A549, CCRF/CEM, LoVo, LoVo/DX, and MCF-7 cells were obtained from ECACC, and NHDF cells from LONZA, Belgium. The A549 and MCF-7 cells were grown in EMEM medium, CCRF/CEM cells in RPMI-1640, LoVo and LoVo/DX cells in DMEM/F-12, and NHDF cells in DMEM without phenol red. The cells were seeded in […] in the biological assay, as recommended by the National Cancer Institute. All culture media were supplemented with L-glutamine, penicillin, streptomycin, and 10% fetal bovine serum (FBS). Cells were incubated at 37 °C and 5% CO2. An assessment of the mitochondrial cell activity after applying tested compounds was carried out using the test MTT assay, recommended in the ISO 10993-5:2009 standard. As in the SRB assay, the cells were exposed to tested compounds after 24 h of initial incubation in 96-well plates. The MTT solution (1 mg/mL) was added to each well, and cells were incubated for 2 h. Finally, the supernatant was removed, and the formazan crystals were dissolved in isopropanol. After 30 min, absorbance at 570 nm in Victor2 microplate reader (PerkinElmer). Cell viability was determined as the IC50 ratio, i.e., the concentration of the compound in which the viability was reduced by half compared with the control.

NHDF cells = assay: SRB assay (total protein content), NHDF; assay type: cell-based; settings: Homo sapiens, NHDF normal cells, 48 h incubation
Experimental: as §1

CCRF/CEM cells [4] = assay: MTT assay (mitochondrial activity), CCRF/CEM; assay type: cell-based; settings: Homo sapiens
Experimental: as §2

MCF-7 cells [5] = assay: SRB assay (total protein content), MCF-7; assay type: cell-based; settings: Homo sapiens, MCF7, 48 h incubation
Experimental: as §1

CCRF/CEM cells [6] = assay: Rate of apoptosis (annexin V/PI, Tali Apoptosis Kit); assay type: cell-based, human; settings: 24 h incubation, tested 0.2, 0.5 and 1 μM
Experimental: Apoptosis is a process of programmed cell death. After exposure to tested compounds, the apoptosis rate was measured using Tali Apoptosis Kit (Invitrogen, Thermo Fisher Scientific, Waltham, MA, USA). In the process of apoptosis, phosphatidylserine (PS) is transferred to the outer side of the cell membrane. The assay uses the ability of fluorophore-labeled annexin V to identify apoptotic cells by binding to exposed PS. The CCRF/CEM cells were incubated in RPMI-1640 medium in 24-well plates for 24 h (37 °C, 5% CO2). Then, tested compounds were added at three different concentrations (0.2, 0.5, and 1 μM) and incubated for 24 h. Negative control was the culture of cells not exposed to apoptosis-inducing factors. After incubation with tested compounds, the cells were harvested, centrifuged, and the supernatant removed. Cells were suspended in annexin V binding buffer (ABB), and Alexa Fluor 488 annexin V conjugate was added to each sample. The cells were then incubated for 20 min in the dark at RT, centrifuged, and resuspended in ABB with propidium iodide (PI). After 5 min incubation, the stained samples were transferred to Tali Cellular Analysis Slides and analyzed using an image-based cytometer Arthur (NanoEnTek Inc., Seoul, Korea).

LoVo/DX cells = assay: SRB assay (total protein content), LoVo/DX; assay type: cell-based; settings: Homo sapiens, LoVo/DX cells (doxorubicin-resistant), 48 h incubation
Experimental: as §1

LoVo cells [7] = assay: MTT assay (mitochondrial activity), LoVo; assay type: cell-based; settings: Homo sapiens
Experimental: as §2

A549 cells [8] = assay: SRB assay (total protein content), A549; assay type: cell-based; settings: Homo sapiens, 48 h incubation
Experimental: The anticancer activity of tested compounds was assessed on five human cell lines selected from the panel of tumor cell lines recommended by the National Cancer Institute: A495 (lung carcinoma), CCRF/CEM (acute lymphoblastic leukemia), LoVo and LoVo/DX (two types of colorectal: non-resistant and resistant to doxorubicin), and MCF-7 (breast adenocarcinoma). In addition, the NHDF cell line (normal human dermal fibroblasts) was used to estimate cytotoxicity to noncancer cells. The A549, CCRF/CEM, LoVo, LoVo/DX, and MCF-7 cells were obtained from ECACC, and NHDF cells from LONZA, Belgium. The A549 and MCF-7 cells were grown in EMEM medium, CCRF/CEM cells in RPMI-1640, LoVo and LoVo/DX cells in DMEM/F-12, and NHDF cells in DMEM without phenol red. The cells were seeded in […] in the biological assay, as recommended by the National Cancer Institute. All culture media were supplemented with L-glutamine, penicillin, streptomycin, and 10% fetal bovine serum (FBS). Cells were incubated at 37 °C and 5% CO2. One of the most popular in vitro tests to evaluate the activity of compounds with potential antitumor activity is the SRB assay. […] Growth inhibition was calculated following the NCI guidelines and expressed as the GI50 ratio, i.e., the concentration of the compound in which the amount of protein was reduced by half compared with the control.

[9] = 1 h pre-incubation with 200 µM omeprazole, compound 10 µM

SMILES | time after which exocytosis was observed after omeprazole (A549 cells [1]; [9]) | GI50 (LoVo cells [2]) | IC50 (MCF-7 cells [3]) | GI50 (NHDF cells) | IC50 (CCRF/CEM cells [4]) | GI50 (MCF-7 cells [5]) | concentration at which apoptosis was induced (CCRF/CEM cells [6]) | GI50 (LoVo/DX cells) | IC50 (LoVo cells [7]) | GI50 (A549 cells [8]) | duration of blockage of exocytosis after omeprazole (A549 cells [1]; [9]) | intracellular localisation (A549 cells [1]; with omeprazole) | intracellular localisation (A549 cells [1]; without omeprazole)
Cc1c2ccncc2c(C)c2c1[nH]c1ccccc12 [Ellipticine] | > 3 h | 950 ± 250 nM | 4670 ± 530 nM | 4440 ± 740 nM | 5860 ± 510 nM | 1250 ± 770 nM | 1 µM | 750 ± 220 nM | 3270 ± 830 nM | 720 ± 60 nM | – | – | –
Cc1nccc2c(C)c3[nH]c4ccccc4c3cc12 [Olivacine, 1,5-dimethyl-6H-pyrido[4,3-b]carbazole] | – | 1020 ± 210 nM | 18500 ± 2410 nM | 14800 ± 3770 nM | 11000 ± 3300 nM | 750 ± 70 nM | 1 µM | 820 ± 80 nM | 12700 ± 1080 nM | 930 ± 60 nM | at least 3 h | in the cytoplasm and not in the lysosomes | accumulation of olivacine in the lysosomes

From paper PMC9181543, “Lysosomal Exocytosis of Olivacine on the Way to Explain Drug Resistance in Cancer Cells” (International Journal of Molecular Sciences, 2022)
